Experimental data as given in patent US10588317B2, “Isoxazoline-substituted benzamides and analogues as insecticides” (priority 2015, dated 2020).
Where two headings read alike, the source gives them in different places.

Columns and labels:
Assay type in all cases: in vivo
Diabrotica balteata = Diabrotica balteata (corn root worm), sprayed maize sprouts; details: 96 h, application rate 200 ppm, L2 larvae, 4 days after infestation, read-out: effect in at least one of the two categories (mortality or growth inhibition)
Method: Maize sprouts placed onto an agar layer in 24-well microtiter plates were treated with aqueous test solutions prepared from 10'000 ppm DMSO stock solutions by spraying. After drying, the plates were infested with L2 larvae (6 to 10 per well). The samples were assessed for mortality and growth inhibition in comparison to untreated samples 4 days after infestation.
(§1) The following compounds gave an effect of at least 80% in at least one of the two categories (mortality or growth inhibition) at an application rate of 200 ppm: […]

Euschistus heros = Euschistus heros (neotropical brown stink bug), sprayed soybean leaves; details: 120 h, application rate 200 ppm, N2 nymphs, 5 days after infestation, read-out: effect in at least one of the two categories (mortality or growth inhibition)
Method: Soybean leaves on agar in 24-well microtiter plates were sprayed with aqueous test solutions prepared from 10'000 ppm DMSO stock solutions. After drying the leaves were infested with N2 nymphs. The samples were assessed for mortality and growth inhibition in comparison to untreated samples 5 days after infestation.
as §1

Plutella xylostella = Plutella xylostella (diamond back moth), artificial diet; details: 120 h, read-out: effect in at least one of the two categories (mortality or growth inhibition); for percent effect (mortality or growth inhibition) at 200 ppm: application rate 200 ppm, L2 larvae, 5 days after infestation
Method: 24-well microtiter plates with artificial diet were treated with aqueous test solutions prepared from 10'000 ppm DMSO stock solutions by pipetting. After drying, the plates were infested with L2 larvae (10 to 15 per well). The samples were assessed for mortality and growth inhibition in comparison to untreated samples 5 days after infestation.
as §1

Spodoptera littoralis = Spodoptera littoralis (Egyptian cotton leaf worm), sprayed cotton leaf discs; details: foliar, 72 h, read-out: control (mortality, anti-feeding effect, growth inhibition)
Method: Cotton leaf discs were placed onto agar in 24-well microtiter plates and sprayed with aqueous test solutions prepared from 10'000 ppm DMSO stock solutions. After drying the leaf discs were infested with five L1 larvae. The samples were assessed for mortality, anti-feeding effect, and growth inhibition in comparison to untreated samples 3 days after infestation. Control of Spodoptera littoralis by a test sample is given when at least one of the categories mortality, anti-feedant effect, and growth inhibition is higher than the untreated sample.

Tetranychus urticae = Tetranychus urticae (two-spotted spider mite): feeding/contact activity; details: 192 h, application rate 200 ppm, mixed population (mobile stages), 8 days after infestation, read-out: mortality
Method: Bean leaf discs on agar in 24-well microtiter plates were sprayed with aqueous test solutions prepared from 10'000 ppm DMSO stock solutions. After drying the leaf discs were infested with a mite population of mixed ages. The samples were assessed for mortality on mixed population (mobile stages) 8 days after infestation.

Thrips tabaci = Thrips tabaci (onion thrips): feeding/contact activity; details: 144 h
Method: Sunflower leaf discs were placed on agar in 24-well microtiter plates and sprayed with aqueous test solutions prepared from 10'000 ppm DMSO stock solutions. After drying the leaf discs were infested with a Thrips population of mixed ages. The samples were assessed for mortality 6 days after infestation.

[1] = application rate 200 ppm, L1 larvae, 3 days after infestation
[2] = application rate 200 ppm, Thrips population of mixed ages, 6 days after infestation, read-out: mortality

Cc1cc(C2=NOC(c3ccnc(F)c3)(C(F)(F)F)C2)ccc1C(=O)NC1CON(S(C)(=O)=O)C1 (stereo not shown) [Compound A54]
≥ 80%: percent effect (mortality or growth inhibition) at 200 ppm (Diabrotica balteata) | percent effect (mortality or growth inhibition) at 200 ppm (Euschistus heros) | percent effect (mortality or growth inhibition) at 200 ppm (Plutella xylostella) | mortality at 200 ppm (Spodoptera littoralis; [1]) | mortality at 200 ppm (Tetranychus urticae)

CS(=O)(=O)N1CC(NC(=O)c2ccc(C3=NOC(c4cc(Cl)cc(Cl)c4)(C(F)(F)F)C3)cc2C#N)CO1 (stereo not shown) [Compound A47]
≥ 80%: mortality at 200 ppm (Spodoptera littoralis; [1])

CS(=O)(=O)N1CC(NC(=O)c2ccc(C3=NOC(c4cc(Cl)cc(Cl)c4)(C(F)(F)F)C3)cc2Cl)CO1 (stereo not shown) [Compound A49]
≥ 80%: percent effect (mortality or growth inhibition) at 200 ppm (Diabrotica balteata) | percent effect (mortality or growth inhibition) at 200 ppm (Euschistus heros) | percent effect (mortality or growth inhibition) at 200 ppm (Plutella xylostella) | mortality at 200 ppm (Spodoptera littoralis; [1]) | mortality at 200 ppm (Tetranychus urticae) | mortality at 200 ppm (Thrips tabaci; [2])

Cc1cc(C2=NOC(c3ccc(OC(F)(F)F)cc3)(C(F)(F)F)C2)ccc1C(=O)NC1CON(S(C)(=O)=O)C1 (stereo not shown) [Compound A53]
≥ 80%: percent effect (mortality or growth inhibition) at 200 ppm (Diabrotica balteata) | percent effect (mortality or growth inhibition) at 200 ppm (Plutella xylostella) | mortality at 200 ppm (Spodoptera littoralis; [1]) | mortality at 200 ppm (Tetranychus urticae)

Cc1cc(C2=NO[C@](c3cc(Cl)cc(Cl)c3)(C(F)(F)F)C2)ccc1C(=O)N[C@H]1CON(S(=O)(=O)CCBr)C1 [Compound A177, N-[(4R)-2-(2-bromoethylsulfonyl)-1,2-oxazolidin-4-yl]-4-[(5R)-5-(3,5-dichlorophenyl)-5-(trifluoromethyl)-4H-1,2-oxazol-3-yl]-2-methylbenzamide]
≥ 80%: percent control (mortality or growth inhibition) at 200 ppm (Plutella xylostella) | mortality at 200 ppm (Spodoptera littoralis) | mortality at 200 ppm (Thrips tabaci)

C=CS(=O)(=O)N1C[C@@H](NC(=O)c2ccc(C3=NO[C@@](c4cc(Cl)c(F)c(Cl)c4)(C(F)(F)F)C3)cc2C)CO1 [Compound A193, 4-[(5S)-5-(3,5-dichloro-4-fluorophenyl)-5-(trifluoromethyl)-4H-1,2-oxazol-3-yl]-N-[(4R)-2-ethenylsulfonyl-1,2-oxazolidin-4-yl]-2-methylbenzamide]
≥ 80%: percent effect (mortality or growth inhibition) at 200 ppm (Plutella xylostella) | mortality at 200 ppm (Spodoptera littoralis; [1]) | mortality at 200 ppm (Tetranychus urticae) | mortality at 200 ppm (Thrips tabaci; [2])

CS(=O)(=O)N1CC(NC(=O)c2ccc(C3=NOC(c4cc(Cl)cc(Cl)c4)(C(F)(F)F)C3)cn2)CO1 (stereo not shown) [Compound A238]
≥ 80%: mortality at 200 ppm (Spodoptera littoralis; [1])

Cc1cc(C2=NOC(c3cc(C(F)(F)F)ccn3)(C(F)(F)F)C2)ccc1C(=O)N[C@H]1CON(S(C)(=O)=O)C1 (stereo partly shown) [Compound A222]
≥ 80%: percent effect (mortality or growth inhibition) at 200 ppm (Diabrotica balteata) | percent effect (mortality or growth inhibition) at 200 ppm (Plutella xylostella) | mortality at 200 ppm (Spodoptera littoralis; [1]) | mortality at 200 ppm (Tetranychus urticae)

CS(=O)(=O)N1CC(NC(=O)c2cnc(C3=NOC(c4cc(Cl)cc(Cl)c4)(C(F)(F)F)C3)c3ccccc23)CO1 (stereo not shown) [Compound A239]
≥ 80%: percent effect (mortality or growth inhibition) at 200 ppm (Diabrotica balteata) | percent effect (mortality or growth inhibition) at 200 ppm (Euschistus heros) | percent effect (mortality or growth inhibition) at 200 ppm (Plutella xylostella) | mortality at 200 ppm (Spodoptera littoralis; [1]) | mortality at 200 ppm (Thrips tabaci; [2])

CNC(=O)CS(=O)(=O)N1C[C@H](NC(=O)c2ccc(C3=NO[C@@](c4cc(Cl)cc(Cl)c4)(C(F)(F)F)C3)cc2C)CO1 [Compound A201]
≥ 80%: percent effect (mortality or growth inhibition) at 200 ppm (Diabrotica balteata) | percent effect (mortality or growth inhibition) at 200 ppm (Euschistus heros) | percent effect (mortality or growth inhibition) at 200 ppm (Plutella xylostella) | mortality at 200 ppm (Spodoptera littoralis; [1]) | mortality at 200 ppm (Tetranychus urticae)

Cc1cc(C2=NO[C@@](c3ccc(C(F)(F)F)c(F)c3)(C(F)(F)F)C2)ccc1C(=O)N[C@H]1CON(S(C)(=O)=O)C1 [Compound A170]
≥ 80%: percent effect (mortality or growth inhibition) at 200 ppm (Diabrotica balteata) | percent effect (mortality or growth inhibition) at 200 ppm (Plutella xylostella) | mortality at 200 ppm (Spodoptera littoralis; [1]) | mortality at 200 ppm (Tetranychus urticae) | mortality at 200 ppm (Thrips tabaci; [2])

Cc1cc(C2=NO[C@@](c3cc(Cl)c(Cl)c(Cl)c3)(C(F)(F)F)C2)ccc1C(=O)NC1CON(S(C)(=O)=O)C1 (stereo partly drawn) [Compound A26, 2-methyl-N-(2-methylsulfonylisoxazolidin-4-yl)-4-[(5S)-5-(3,4,5-trichlorophenyl)-5-(trifluoromethyl)-4H-isoxazol-3-yl]benzamide]
≥ 80%: percent effect (mortality or growth inhibition) at 200 ppm (Euschistus heros)

CNS(=O)(=O)N1C[C@H](NC(=O)c2ccc(C3=NO[C@@](c4ccc(C(F)(F)F)c(F)c4)(C(F)(F)F)C3)cc2C)CO1 [Compound A182]
≥ 80%: percent effect (mortality or growth inhibition) at 200 ppm (Diabrotica balteata) | percent effect (mortality or growth inhibition) at 200 ppm (Plutella xylostella) | mortality at 200 ppm (Spodoptera littoralis; [1]) | mortality at 200 ppm (Tetranychus urticae) | mortality at 200 ppm (Thrips tabaci; [2])

Cc1cc(C2=NO[C@](c3ccc(C(F)(F)F)c(F)c3)(C(F)(F)F)C2)ccc1C(=O)N[C@@H]1CON(S(=O)(=O)N(C)C)C1 [Compound A171]
≥ 80%: percent effect (mortality or growth inhibition) at 200 ppm (Diabrotica balteata) | percent effect (mortality or growth inhibition) at 200 ppm (Plutella xylostella) | mortality at 200 ppm (Spodoptera littoralis; [1]) | mortality at 200 ppm (Tetranychus urticae) | mortality at 200 ppm (Thrips tabaci; [2])

Cc1cc(C2=NOC(c3ccc(Br)cc3)(C(F)(F)F)C2)ccc1C(=O)NC1CON(S(C)(=O)=O)C1 (stereo not shown) [Compound A55]
≥ 80%: percent effect (mortality or growth inhibition) at 200 ppm (Diabrotica balteata) | percent effect (mortality or growth inhibition) at 200 ppm (Plutella xylostella) | mortality at 200 ppm (Spodoptera littoralis; [1]) | mortality at 200 ppm (Tetranychus urticae) | mortality at 200 ppm (Thrips tabaci; [2])

CS(=O)(=O)N1CC(NC(=O)c2ccc(C3=NOC(c4cc(Cl)cc(Cl)c4)(C(F)(F)F)C3)c3ncccc23)CO1 (stereo not shown) [Compound A56]
≥ 80%: percent effect (mortality or growth inhibition) at 200 ppm (Plutella xylostella) | mortality at 200 ppm (Spodoptera littoralis; [1])

Cc1nc(C2=NOC(c3cc(Cl)cc(Cl)c3)(C(F)(F)F)C2)ccc1C(=O)NC1CON(S(C)(=O)=O)C1 (stereo not shown) [Compound A237]
≥ 80%: percent effect (mortality or growth inhibition) at 200 ppm (Diabrotica balteata) | percent effect (mortality or growth inhibition) at 200 ppm (Plutella xylostella) | mortality at 200 ppm (Spodoptera littoralis; [1])

Cc1cc(Cl)cc(C2(C(F)(F)F)CC(c3ccc(C(=O)NC4CON(S(C)(=O)=O)C4)c(C)c3)=NO2)c1 (stereo not shown) [Compound A51]
≥ 80%: percent effect (mortality or growth inhibition) at 200 ppm (Diabrotica balteata) | percent effect (mortality or growth inhibition) at 200 ppm (Plutella xylostella) | mortality at 200 ppm (Spodoptera littoralis; [1]) | mortality at 200 ppm (Tetranychus urticae) | mortality at 200 ppm (Thrips tabaci; [2])

C=CS(=O)(=O)N1C[C@H](NC(=O)c2ccc(C3=NO[C@@](c4cc(Cl)cc(Cl)c4)(C(F)(F)F)C3)cc2C)CO1 [Compound A175]
≥ 80%: mortality at 200 ppm (Spodoptera littoralis; [1])
